These results are taken from patent US9868692B2, “Compounds and compositions for intracellular delivery of therapeutic agents” (MODERNATX, Inc., priority 2015, dated 2018).

A short description of series [1]: Residual lipid level in liver of rats (UPLC-MS quantification). The series is classed as in vivo. The conditions noted are these: rat; for % Lipid Remaining in liver, 48 h 2 mpk: assuming 300 g rat and 15 g liver; for concentration at 48 h: intravenous. The procedure:
(§1) To pre-weighed tissues, Milli-Q water was added (900 μL water per 100 mg tissue). Tissues were homogenized using an Omni probe homogenizer until uniform. 50 μL of samples and matrix calibration standards were aliquoted into a 96-well plate. 50 μL of blank matrix for matrix blanks and control blanks were aliquoted. 400 μL IS spiking solution were manually added to all samples except matrix blanks. 400 μL of 50:50 ACN:IPA were manually added to matrix blanks. The plate was covered and the samples vortexed and centrifuged for 5 minutes at >3000 rpm. 200 μL of the samples were transferred into a clean 96-well plate for analysis. […] Detection was based on electrospray ionization (ESI) in positive mode using a Sciex API5500 Mass Spectrometer.
(§2) The expression of hEPO in rats intravenously administered a nanoparticle composition at a dose of 0.2 mpk or 2.0 mpk was measured at 6 hours. […] Liver and spleen levels represent the average values calculated for 3 rats in each group.
(§3) The expression of hEPO and lipid levels in the liver and spleen in rats intravenously administered a nanoparticle composition at a dose of 0.2 mpk was measured at various timepoints. […] Lipids were formulated according to the standard MC3 formulation described above.

Series [2] can be described thus: Residual lipid level in spleen of rats (UPLC-MS quantification). The conditions noted are these: rat. The series is classed as in vivo. The procedure: as §1, §2, §3
The nature of series [3]: Particle size, polydispersity index (and zeta potential) of nanoparticle compositions, Zetasizer Nano ZS. The series is classed as physicochemical. The conditions noted are these: Table 1A formulations. From the text: Nanoparticle compositions may be characterized by a variety of methods. For example, microscopy (e.g., transmission electron microscopy or scanning electron microscopy) may be used to examine the morphology and size distribution of a nanoparticle composition. Dynamic light scattering or potentiometry (e.g., potentiometric titrations) may be used to measure zeta potentials. Dynamic light scattering may also be utilized to determine particle sizes. Instruments such as the Zetasizer Nano ZS (Malvern Instruments Ltd, Malvern, Worcestershire, UK) may also be used to measure multiple characteristics of a nanoparticle composition, such as particle size, polydispersity index, and zeta potential.
A Zetasizer Nano ZS (Malvern Instruments Ltd, Malvern, Worcestershire, UK) can be used to determine the particle size, the polydispersity index (PDI) and the zeta potential of the nanoparticle compositions in 1×PBS in determining particle size and 15 mM PBS in determining zeta potential.

Setting [4] is: liver, 0.2 mg/kg, 0.2 mpk, 48 h, average of 3 rats, read-out: Liver level.
The mark [5] stands for this setting: liver, 2 mg/kg, 2 mpk, 48 h, average of 3 rats, read-out: Liver level.
Setting [6] is: intravenous, 0.2 mg/kg, 0.2 mpk, 48 h, average of 3 rats, read-out: Spleen level.
Where [7] appears, read: intravenous, 2 mg/kg, 2 mpk, 48 h, average of 3 rats, read-out: Spleen level.
[8] abbreviates: liver, iv, 0.2 mg/kg, 0.2 mpk, 48 hours, read-out: Liver level.
[9] abbreviates: liver, iv, 2 mg/kg, 2 mpk, 48 hours, read-out: Liver level.
Setting [10] is: iv, 0.2 mg/kg, 0.2 mpk, 48 hours, read-out: Spleen level.
[11] abbreviates: iv, 2 mg/kg, 2 mpk, 48 hours, read-out: Spleen level.

Take `CCCCCCCCCN(CCO)CCCCCCCC(=O)OC(CCCCCCCC)CCCCCCCC` [Compound 3, Heptadecan-9-yl 8-((2-hydroxyethyl)(nonyl)amino)octanoate]: the “% Lipid Remaining in liver, 48 h 2 mpk” value in series [1] (2 mpk, 48 h) came to 14%.
The same measure, in the same setting: under `CCCCCC/C=C\COC(=O)CCCCCCCN(CCO)CCCCCCCC(=O)OC(CCCCCCCC)CCCCCCCC` [Compound 24, Heptadecan-9-yl (Z)-8_((2-hydroxyethyl)(8-(non-2-en-1-yloxy)-8-oxooctyl)amino)octanoate] stands 0.016%.
With `CCCCCCCCCCCOC(=O)CCCCCN(CCO)CCCCCCCC(=O)OC(CCCCCCCC)CCCCCCCC` [Compound 25, Heptadecan-9-yl 8-((2-hydroxyethyl)(6-oxo-6-(undecyloxy)hexyl)amino)octanoate], the concentration at 0.25 h was determined as 12000 ng/g in series [1] (liver, iv, 0.2 mg/kg, 0.2 mpk, 0.25 h) and 4040 ng/g in series [2] (iv, 0.2 mg/kg, 0.2 mpk, 0.25 h). Further, the concentration at 0.5 h in series [1] (liver, iv, 0.2 mg/kg, 0.2 mpk, 0.5 h) was found to be 16400 ng/g; in series [2] (iv, 0.2 mg/kg, 0.2 mpk, 0.5 h), 6880 ng/g. The concentration at 1 h in series [1] (liver, iv, 0.2 mg/kg, 0.2 mpk, 1 h) turned out to be 17900 ng/g; in series [2] (iv, 0.2 mg/kg, 0.2 mpk, 1 h) it was 8590 ng/g. Also, the concentration at 2 h in series [1] (liver, iv, 0.2 mg/kg, 0.2 mpk, 2 h) came out at 11700 ng/g; in series [2] (iv, 0.2 mg/kg, 0.2 mpk, 2 h), 13700 ng/g. Moreover, the concentration at 4 h in series [1] (liver, iv, 0.2 mg/kg, 0.2 mpk, 4 h) is 6690 ng/g; in series [2] (iv, 0.2 mg/kg, 0.2 mpk, 4 h), 20400 ng/g. Further, the concentration at 8 h in series [1] (liver, iv, 0.2 mg/kg, 0.2 mpk, 8 h) turned out to be 2360 ng/g; in series [2] (iv, 0.2 mg/kg, 0.2 mpk, 8 h), 10800 ng/g. Further, the concentration at 24 h in series [1] (liver, iv, 0.2 mg/kg, 0.2 mpk, 24 h) is 199 ng/g; in series [2] (iv, 0.2 mg/kg, 0.2 mpk, 24 h), 2020 ng/g. For the same compound, the concentration at 48 h turned out to be 12000 ng/g in series [1] (liver, iv, 0.2 mg/kg, 0.2 mpk, 48 h, read-out: Lipid level in liver) and 1550 ng/g in series [2] (iv, 0.2 mg/kg, 0.2 mpk, 48 h, read-out: Lipid level in spleen).
Consider `CCCCCCCCCOC(=O)CCCN(CCO)CCCCCCCC(=O)OC(CCCCCCCC)CCCCCCCC` [Compound 26, Heptadecan-9-yl 8-((2-hydroxyethyl)(4-(nonyloxy)-4-oxobutyl)amino) octanoate], for which the “% Lipid Remaining in liver, 48 h 2 mpk” value in series [1] (2 mpk, 48 h) was 20%.
With `CCCCCCCCC(CCCCCCCC)OC(=O)CCCCCCCN(CCO)CCCCCCCC(=O)OCC1CC1CCCCCC` (stereo not drawn) [Compound 28, Heptadecan-9-yl 8-((8-((2-hexylcyclopropyl)methoxy)-8-oxooctyl)(2-hydroxyethyl)amino)octanoate], the concentration at 48 h in series [1] (setting [4]) stood at 49.6 ng/g; in series [1] (setting [5]), 665 ng/g; in series [2] (setting [6]), 268 ng/g; in series [2] (setting [7]), 551 ng/g.
Take `CCCCCCCCCOC(=O)CCCCCCCN(CCO)CCCCCCCOC(=O)C(CCCCCCCC)CCCCCCCC` [Compound 30, 7-((2-Hydroxyethyl)(8-(nonyloxy)-8-oxooctyl)amino)heptyl 2-octyldecanoate]: the “% Lipid Remaining in liver, 48 h 2 mpk” value in series [1] (2 mpk, 48 h) was less than 0.01%.
Consider `CCCCCCCCCOC(=O)CCCCCCCN(CCO)CCCCCCCC(=O)OC(CCCCC)CCCCCCCC` (stereo not drawn) [Compound 33, nonyl 8-((2-hydroxyethyl)(8-oxo-8-(tetradecan-6-yloxy)octyl)amino) octanoate], for which the concentration at 48 h is 103 ng/g in series [1] (setting [5]), 115 ng/g in series [2] (setting [6]) and 287 ng/g in series [2] (setting [7]).
Turning to `CCCCCCCCC(C)OC(=O)CCCCCCCN(CCO)CCCCCCCC(=O)OC(CCCCCCCC)CCCCCCCC` (stereo not drawn) [Compound 48, decan-2-yl 8-((8-(heptadecan-9-yloxy)-8-oxooctyl)(2-hydroxyethyl)amino)octanoate], the concentration at 48 h was determined as 5450 ng/g in series [1] (setting [8]), 34500 ng/g in series [1] (setting [9]), 0.31 in series [2] (setting [10]) and 0.21 in series [2] (setting [11]).
For `CCCCCCCCC(CCC)OC(=O)CCCCCCCN(CCO)CCCCCCCC(=O)OC(CCCCCCCC)CCCCCCCC` (stereo not drawn) [Compound 50, dodecan-4-yl 8-((8-(heptadecan-9-yloxy)-8-oxooctyl)(2-hydroxyethyl)amino)octanoate], in that order: 5820 ng/g, 79200 ng/g, 0.22 and 0.17.
Turning to `CCCCCCCCC(CCCCCCCC)OC(=O)CCCCCCCN(CCO)CCCC(=O)OCCCCCC` [Compound 53, heptadecan-9-yl 8-((4-(hexyloxy)-4-oxobutyl)(2-hydroxyethyl)amino) octanoate], the concentration at 48 h in series [1] (setting [4]) is 4810 ng/g; in series [1] (setting [5]), 47000 ng/g; in series [2] (setting [6]) it was 1180 ng/g; in series [2] (setting [7]) it was 201000 ng/g.
The matching figures for `CCCCCCCCC(CCCCCCCC)OC(=O)CCCCCCCN(CCO)CCCC(=O)OCCCCCCC` [Compound 54, heptadecan-9-yl 8-((4-(heptyloxy)-4-oxobutyl)(2-hydroxyethyl)amino) octanoate]: 6070 ng/g, 56100 ng/g, 6360 ng/g and 49400 ng/g.
As to `CCCCCCCCC(CCCCCCCC)OC(=O)CCCCCCCN(CCO)CCCC(=O)OC(CCCCC)CCCCCCCC` (stereo not drawn) [Compound 71, Heptadecan-9-yl 8-((2-hydroxyethyl)(4-oxo-4-(tetradecan-6-yloxy)butyl)amino)octanoate], in series [3], the PDI is on record as 0.11.
`CCCCCCCCCOC(=O)CCCCCCCN(CCCCCCCC(=O)OC(CCCCCCCC)CCCCCCCC)CCCNC(=O)NC` [Compound 112, Heptadecan-9-yl 8-((3-(3-methylureido)propyl)(8-(nonyloxy)-8-oxooctyl)amino)octanoate] returned a PDI in series [3] of 0.12.
Still for that read-out and setting: under `CCCCCCCCCOC(=O)CCCCCCCN(CCO)CCCCCCC(=O)OCC(CCCCCCCC)CCCCCCCC` [Compound 143, Nonyl 8-((2-hydroxyethyl)(7-((2-octyldecyl)oxy)-7-oxoheptyl)amino)octanoate] stands 0.19; under `CCCCCCCCCOC(=O)CCCCCCCN(CCCCCCCC(=O)OC(CCCCCCCC)CCCCCCCC)CCCN/C(=N/C#N)N(C)C` [Compound 168, Heptadecan-9-yl (Z)-8-((3-(2-cyano-3,3-dimethylguanidino)propyl)(8-(nonyloxy)-8-oxooctyl)amino)octanoate], 0.1.
The same measure, in the same setting: to `CCCCCCCCCOC(=O)CCCCCCCN(CCCCCCCC(=O)OC(CCCCCCCC)CCCCCCCC)CCCOC(=O)NC` [Compound 175, Heptadecan-9-yl 8-((3-((methylcarbamoyl)oxy)propyl)(8-(nonyloxy)-8-oxooctyl)amino)octanoate] belongs 0.2.
